# Source: ChEMBL document CHEMBL1201862, “PubChem BioAssay data set” (2004)
#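 A five-concentration, 48-hour dose response in 96-well plates underlies each endpoint, interpolated linearly between surrounding concentrations. GI50: concentration for 50% inhibition of growth.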 The source made the active and inactive calls. Cut-off read from the data, not from the text of the source: active = GI50 up to about 1.1 µM and inactive = higher.
# Tests used:
# Test in all cases: NCI anticancer screen, dose series, 48 h
# NCI/ADR-RES = system: NCI/ADR-RES
# KM-20L2 = system: KM-20L2
# MDA-MB-435 = system: MDA-MB-435
# LXFL 529 = system: LXFL 529
# DMS-114 = system: DMS-114
# MDA-N = system: MDA-N
# DMS-273 = system: DMS-273
# M19-MEL = system: M19-MEL
# RXF 631 = system: RXF 631
SMILES,GI50 (NCI/ADR-RES),GI50 (KM-20L2),GI50 (MDA-MB-435),GI50 (LXFL 529),GI50 (DMS-114),GI50 (MDA-N),GI50 (DMS-273),GI50 (M19-MEL),GI50 (RXF 631)
Oc1cc(-n2cccn2)c(O)cc1-n1cccn1,29.4 µM (inactive),> 85.7 µM (inactive),17.5 µM (inactive),19.4 µM (inactive),26.4 µM (inactive),17.6 µM (inactive),41.3 µM (inactive),23.7 µM (inactive),> 60.8 µM (inactive)
COc1ccc2[nH]c3c4c(ccc3c2c1)C(=O)C=CC4=O,–,18.9 µM (inactive),25.9 µM (inactive),5.02 µM (inactive),11.8 µM (inactive),16.2 µM (inactive),16.2 µM (inactive),14.3 µM (inactive),–
O=C(Nc1ccc(C(F)(F)F)cc1[N+](=O)[O-])C(=O)Nn1c(S)nc2ccccc2c1=O,–,> 100 µM (inactive),–,–,> 100 µM (inactive),–,> 100 µM (inactive),> 100 µM (inactive),> 100 µM (inactive)
CCC/C(=N\NC(=O)c1cc2ccccc2cc1O)C(CC)C(=O)CCC(=O)N(Cc1ccccc1)Cc1ccccc1 (stereo unspecified),–,43 µM (inactive),–,29.6 µM (inactive),26.3 µM (inactive),–,18.2 µM (inactive),18.7 µM (inactive),38.1 µM (inactive)
O=C(CC(=O)c1ccc([N+](=O)[O-])cc1)C(=O)Nc1nccs1,–,> 100 µM (inactive),–,> 100 µM (inactive),> 40.5 µM (inactive),–,> 100 µM (inactive),–,> 100 µM (inactive)
CCO/N=[N+](\[O-])N(CC)CC,–,> 100 µM (inactive),–,> 100 µM (inactive),–,–,> 100 µM (inactive),> 100 µM (inactive),> 100 µM (inactive)
O=C(Nc1ccc(Cl)cc1Cl)c1c/c(=N\O)c2ccc(O)cc2o1,–,> 100 µM (inactive),–,> 100 µM (inactive),> 100 µM (inactive),–,–,> 100 µM (inactive),> 100 µM (inactive)
C=CCCC(OCOCCOC)c1cc(C)c(O[Si](C)(C)C(C)(C)C)c(C)c1 (stereo unspecified),–,13.2 µM (inactive),–,22.8 µM (inactive),11.7 µM (inactive),–,–,17.9 µM (inactive),15.4 µM (inactive)
C/C(=N\Nc1ccccc1)C(CN(C)C)C(c1ccccc1)c1c(O)c2ccccc2oc1=O (stereo unspecified),> 100 µM (inactive),> 100 µM (inactive),> 100 µM (inactive),> 100 µM (inactive),> 100 µM (inactive),> 100 µM (inactive),–,> 100 µM (inactive),> 100 µM (inactive)
O=C(N/N=C(\c1nc2ccc(Cl)cc2nc1O)C(O)c1ccccc1Cl)c1ccncc1 (stereo unspecified),–,> 100 µM (inactive),–,> 100 µM (inactive),> 100 µM (inactive),–,> 100 µM (inactive),> 100 µM (inactive),> 100 µM (inactive)
CC(=O)/C=C\C(=O)NNS(=O)(=O)c1ccc(C)cc1,–,> 100 µM (inactive),–,> 100 µM (inactive),–,–,> 100 µM (inactive),> 100 µM (inactive),> 100 µM (inactive)
N#CC(c1nc2ccccc2nc1Cl)S(=O)(=O)c1ccccc1 (stereo unspecified),–,> 100 µM (inactive),–,46.6 µM (inactive),> 100 µM (inactive),–,> 100 µM (inactive),> 100 µM (inactive),–
NC1=NS(=O)(=O)Nc2nc(-c3ccc([N+](=O)[O-])o3)[nH]c21,–,23.1 µM (inactive),–,12.7 µM (inactive),14.2 µM (inactive),–,21.4 µM (inactive),16.6 µM (inactive),–
CN(C)CC1(C)CC/C(=C\c2ccc(Cl)cc2)C1=O (stereo unspecified),–,21.3 µM (inactive),–,21.1 µM (inactive),22.6 µM (inactive),–,20.7 µM (inactive),50.8 µM (inactive),–
COC(=O)C(C#N)C1NC(=O)c2ccccc21 (stereo unspecified),–,> 100 µM (inactive),–,–,> 100 µM (inactive),–,> 100 µM (inactive),> 100 µM (inactive),> 100 µM (inactive)
CCCN(CCCCC(NC(C)=O)C(=O)NCc1ccccc1)C(=O)NC (stereo unspecified),–,> 100 µM (inactive),–,> 100 µM (inactive),> 100 µM (inactive),–,> 100 µM (inactive),> 100 µM (inactive),> 100 µM (inactive)
BrC/C=C/C[P+](c1ccccc1)(c1ccccc1)c1ccccc1,–,27.2 µM (inactive),–,1.7 µM (inactive),27.5 µM (inactive),–,2.44 µM (inactive),10.8 µM (inactive),> 100 µM (inactive)
Cc1c(N)nc(C(CC(N)=O)NCC(N)C(N)=O)nc1C(=O)NC(C(=O)NC(C)C(O)C(C)C(=O)NC(C(=O)NCCc1nc(-c2nc(C(=O)NCCCNCCCCN)cs2)cs1)C(C)O)C(OC1OC(CO)C(O)C(O)C1OC1OC(CO)C(O)C(OC(N)=O)C1O)c1c[nH]cn1 (stereo unspecified),–,> 10 µM (inactive),–,> 10 µM (inactive),1.85 µM (inactive),–,0.957 µM (active),> 10 µM (inactive),0.0274 µM (active)
O=C1OC(=O)C2C3C=CC(C12)C1C2C=CC2C31 (stereo unspecified),–,> 100 µM (inactive),–,> 100 µM (inactive),–,–,> 100 µM (inactive),> 100 µM (inactive),> 100 µM (inactive)
C=C1C(OC(C)=O)CC(OC(C)=O)C2(C)C(OC(C)=O)C(OC(C)=O)C3=C(C)C(OC(=O)/C=C/c4ccccc4)CC(C(OC(C)=O)C12)C3(C)C (stereo unspecified),–,> 100 µM (inactive),–,51.9 µM (inactive),> 100 µM (inactive),–,> 100 µM (inactive),> 100 µM (inactive),51.2 µM (inactive)
CN(C)CCCNc1ccc2nnn3c4ccc([N+](=O)[O-])cc4c(=O)c1c23,0.685 µM (active),0.745 µM (active),1.49 µM (inactive),1.22 µM (inactive),1.89 µM (inactive),2.09 µM (inactive),0.685 µM (active),3.65 µM (inactive),0.723 µM (active)
CCc1ccccc1NC(=O)c1cccc([N+](=O)[O-])c1O,–,24.7 µM (inactive),–,36.4 µM (inactive),17.2 µM (inactive),–,22.1 µM (inactive),23.6 µM (inactive),23.7 µM (inactive)
CN(C)Cc1cc(/C(=C(\C#N)c2ccccc2)c2ccc(O)cc2)ccc1O,–,20.4 µM (inactive),–,18.2 µM (inactive),15.1 µM (inactive),–,17.4 µM (inactive),16.9 µM (inactive),17.8 µM (inactive)
CN(C)CCC1(C2=CCCC2)CC/C(=C\c2ccccc2Cl)C1=O (stereo unspecified),–,11.5 µM (inactive),–,11.5 µM (inactive),12.2 µM (inactive),–,–,33 µM (inactive),6.07 µM (inactive)
